According to PubChem BioAssay (NCI):
Where “and” joins values, the source holds several entries; their conditions need not be identical. Equal entries are not always repeated.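 Cells were grown in 96-well plates and exposed to each compound for 48 hours at five concentrations; endpoints were interpolated linearly between bracketing concentrations, or set to the highest concentration if not reached. GI50 marks 50% less growth. TGI marks complete inhibition of growth.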

Experiments:
Assay in all cases: NCI tumour cell line growth inhibition, 48 h
UO-31 renal = tested on: UO-31 renal
HS 578T breast = tested on: HS 578T breast
NCI/ADR-RES ovarian = tested on: NCI/ADR-RES ovarian
HCC-2998 colon = tested on: HCC-2998 colon
OVCAR-3 ovarian = tested on: OVCAR-3 ovarian
HCT-15 colon = tested on: HCT-15 colon
NCI-H23 lung = tested on: NCI-H23 lung
DMS 273 small cell lung = tested on: DMS 273 small cell lung
ACHN renal = tested on: ACHN renal
SK-MEL-28 melanoma = tested on: SK-MEL-28 melanoma
HT29 colon = tested on: HT29 colon
SF-539 CNS = tested on: SF-539 CNS
NCI-H522 lung = tested on: NCI-H522 lung
MDA-MB-231 breast = tested on: MDA-MB-231 breast
HOP-62 NSCLC = tested on: HOP-62 NSCLC
RXF 393 renal = tested on: RXF 393 renal
LXFL 529 NSCLC = tested on: LXFL 529 NSCLC
786-0 renal = tested on: 786-0 renal
XF 498 CNS = tested on: XF 498 CNS
DLD-1 colon = tested on: DLD-1 colon
COLO 205 colon = tested on: COLO 205 colon
SK-OV-3 ovarian = tested on: SK-OV-3 ovarian
MDA-MB-435 = tested on: MDA-MB-435
BT-549 breast = tested on: BT-549 breast
MCF7 breast = tested on: MCF7 breast
LOX IMVI melanoma = tested on: LOX IMVI melanoma
PC-3 prostate = tested on: PC-3 prostate
MOLT-4 leukemia = tested on: MOLT-4 leukemia
KM12 colon = tested on: KM12 colon
EKVX NSCLC = tested on: EKVX NSCLC
DU-145 prostate = tested on: DU-145 prostate
SF-268 CNS = tested on: SF-268 CNS
RPMI-8226 leukemia = tested on: RPMI-8226 leukemia
SW-620 colon = tested on: SW-620 colon
NCI-H226 lung = tested on: NCI-H226 lung
UACC-62 melanoma = tested on: UACC-62 melanoma
SN12C renal = tested on: SN12C renal
MALME-3M melanoma = tested on: MALME-3M melanoma
HOP-92 NSCLC = tested on: HOP-92 NSCLC
UACC-257 melanoma = tested on: UACC-257 melanoma
HL-60(TB) leukemia = tested on: HL-60(TB) leukemia
OVCAR-5 ovarian = tested on: OVCAR-5 ovarian
DMS 114 small cell lung = tested on: DMS 114 small cell lung
CAKI-1 renal = tested on: CAKI-1 renal
SR leukemia = tested on: SR leukemia
MDA-N = tested on: MDA-N
A549 NSCLC = tested on: A549 NSCLC
A498 renal = tested on: A498 renal
OVCAR-4 ovarian = tested on: OVCAR-4 ovarian
NCI-H460 lung = tested on: NCI-H460 lung
KM20L2 colon = tested on: KM20L2 colon
K-562 leukemia = tested on: K-562 leukemia
M19-MEL melanoma = tested on: M19-MEL melanoma
IGROV1 ovarian = tested on: IGROV1 ovarian
SK-MEL-2 melanoma = tested on: SK-MEL-2 melanoma
HCT-116 colon = tested on: HCT-116 colon
CCRF-CEM leukemia = tested on: CCRF-CEM leukemia
M14 melanoma = tested on: M14 melanoma
T-47D breast = tested on: T-47D breast
SK-MEL-5 melanoma = tested on: SK-MEL-5 melanoma
SNB-75 CNS = tested on: SNB-75 CNS
SNB-78 CNS = tested on: SNB-78 CNS
U251 CNS = tested on: U251 CNS
SF-295 CNS = tested on: SF-295 CNS
TK-10 renal = tested on: TK-10 renal
SNB-19 CNS = tested on: SNB-19 CNS
OVCAR-8 ovarian = tested on: OVCAR-8 ovarian
HOP-18 NSCLC = tested on: HOP-18 NSCLC

In the case of `O=C1C=CC(=O)c2c1c1c(c3c2C2c4ccccc4C3c3ccccc32)C2c3ccccc3C1c1ccccc12`, the GI50 (UO-31 renal) is reported as 1620 nM, the TGI (UO-31 renal) is reported as 3.09 µM and 4.32 µM and the GI50 (HS 578T breast) is reported as 2380 nM. It also gave a TGI (HS 578T breast) of 6.24 µM, a GI50 (NCI/ADR-RES ovarian) of 2640 nM and a TGI (NCI/ADR-RES ovarian) of 6.2 µM. The GI50 (HCC-2998 colon) was 4.91 µM, the TGI (HCC-2998 colon) was 17.4 µM and the TGI (OVCAR-3 ovarian) was 3.3 µM. The GI50 (HCT-15 colon) was 1220 nM, the TGI (HCT-15 colon) was 2770 nM and 2950 nM and the GI50 (NCI-H23 lung) was 1810 nM. The TGI (NCI-H23 lung) was 4.36 µM and 6.61 µM, the TGI (DMS 273 small cell lung) was 4.08 µM and the GI50 (ACHN renal) was 1960 nM. The TGI (ACHN renal) was 3.43 µM and 3.16 µM, the TGI (SK-MEL-28 melanoma) was 2830 nM and the GI50 (HT29 colon) was 1640 nM. The TGI (HT29 colon) was 4.19 µM and 4.29 µM, the TGI (SF-539 CNS) was 11.5 µM and the GI50 (NCI-H522 lung) was 254 nM. For the same compound, the TGI (NCI-H522 lung) was 775 nM and 1420 nM, the GI50 (MDA-MB-231 breast) was 2020 nM and the TGI (MDA-MB-231 breast) was 4.09 µM. For the same compound, the GI50 (HOP-62 NSCLC) was 6.47 µM, the TGI (HOP-62 NSCLC) was 35.1 µM and the GI50 (RXF 393 renal) was 2330 nM. For the same compound, the TGI (RXF 393 renal) was 3.86 µM and 3 µM, the TGI (LXFL 529 NSCLC) was 2270 nM and the TGI (786-0 renal) was 2990 nM and 2880 nM. The TGI (XF 498 CNS) was 3.34 µM, the TGI (DLD-1 colon) was 2300 nM and the GI50 (COLO 205 colon) was 1670 nM. The TGI (COLO 205 colon) was 3.66 µM and 2.86 µM, the TGI (SK-OV-3 ovarian) was 28.6 µM and the TGI (MDA-MB-435) was 3.34 µM and 3.35 µM. For the same compound, the TGI (BT-549 breast) was 13.7 µM, the GI50 (MCF7 breast) was 2580 nM and the TGI (MCF7 breast) was 3.29 µM and 7.55 µM. The TGI (LOX IMVI melanoma) was 2.91 µM and 3.08 µM, the GI50 (PC-3 prostate) was 9.64 µM and the TGI (PC-3 prostate) was 3.37 µM and 21.6 µM. For the same compound, the GI50 (MOLT-4 leukemia) was 393 nM, the TGI (MOLT-4 leukemia) was > 54.5 µM and the GI50 (KM12 colon) was 2490 nM. The TGI (KM12 colon) was 25.5 µM, the GI50 (EKVX NSCLC) was 6.11 µM and the TGI (EKVX NSCLC) was 8.53 µM. The TGI (DU-145 prostate) was 28.4 µM, the TGI (SF-268 CNS) was 16.5 µM and the GI50 (RPMI-8226 leukemia) was 479 nM. For the same compound, the TGI (RPMI-8226 leukemia) was > 22.1 µM, the GI50 (SW-620 colon) was 588 nM and the TGI (SW-620 colon) was 4.82 µM and 2.16 µM. For the same compound, the GI50 (NCI-H226 lung) was 1570 nM, the TGI (NCI-H226 lung) was 3.02 µM and 11.1 µM and the GI50 (UACC-62 melanoma) was 1740 nM. For the same compound, the TGI (UACC-62 melanoma) was 4.37 µM and 4.7 µM, the GI50 (SN12C renal) was 1430 nM and the TGI (SN12C renal) was 3 µM and 7.45 µM. For the same compound, the TGI (MALME-3M melanoma) was 3.07 µM and 3.05 µM, the GI50 (HOP-92 NSCLC) was 1650 nM and the TGI (HOP-92 NSCLC) was 3.08 µM and 2.47 µM. For the same compound, the TGI (UACC-257 melanoma) was 3.58 µM, the GI50 (HL-60(TB) leukemia) was 657 nM and the TGI (HL-60(TB) leukemia) was 4.1 µM and 4.85 µM. It also gave a TGI (OVCAR-5 ovarian) of 16.3 µM, a TGI (DMS 114 small cell lung) of 4.41 µM and a GI50 (CAKI-1 renal) of 1500 nM. For the same compound, the TGI (CAKI-1 renal) was 2.83 µM and 3.25 µM, the GI50 (SR leukemia) was 386 nM and the TGI (SR leukemia) was > 43.4 µM. For the same compound, the TGI (MDA-N) was 2910 nM and 3010 nM, the GI50 (A549 NSCLC) was 3.08 µM and the TGI (A549 NSCLC) was 21.9 µM. For the same compound, the TGI (A498 renal) was 11.1 µM, the TGI (OVCAR-4 ovarian) was 3.92 µM and the GI50 (NCI-H460 lung) was 3.85 µM. The TGI (NCI-H460 lung) was 26.8 µM, the TGI (KM20L2 colon) was 15.2 µM and the GI50 (K-562 leukemia) was 552 nM. The TGI (K-562 leukemia) was 3.94 µM and 10.7 µM, the TGI (M19-MEL melanoma) was 3.6 µM and the GI50 (IGROV1 ovarian) was 2080 nM. For the same compound, the TGI (IGROV1 ovarian) was 4.58 µM and 14.7 µM, the TGI (SK-MEL-2 melanoma) was 4.25 µM and the TGI (HCT-116 colon) was 2850 nM and 2910 nM. The GI50 (CCRF-CEM leukemia) was 451 nM, the TGI (CCRF-CEM leukemia) was 2930 nM and the TGI (M14 melanoma) was 3.29 µM and 3.12 µM. For the same compound, the GI50 (T-47D breast) was 2000 nM, the TGI (T-47D breast) was 3.25 µM and 3.49 µM and the GI50 (SK-MEL-5 melanoma) was 1520 nM. The TGI (SK-MEL-5 melanoma) was 3.11 µM and 6.21 µM, the TGI (SNB-75 CNS) was 24.4 µM and the TGI (SNB-78 CNS) was 3.57 µM. The GI50 (U251 CNS) was 4.05 µM, the TGI (U251 CNS) was 20.5 µM and the GI50 (SF-295 CNS) was 3.21 µM. The TGI (SF-295 CNS) was 30.4 µM, the TGI (TK-10 renal) was 3.31 µM and 3.4 µM and the GI50 (SNB-19 CNS) was 3.62 µM. For the same compound, the TGI (SNB-19 CNS) was 34.4 µM, the GI50 (OVCAR-8 ovarian) was 2780 nM and the TGI (OVCAR-8 ovarian) was 2940 nM.
`COc1cc(/C=N/N=C(\N)NO)cc(Cl)c1O` was tested, and the TGI (UO-31 renal) was > 100 µM, the TGI (HCC-2998 colon) was > 100 µM and the TGI (OVCAR-3 ovarian) was > 100 µM. For the same compound, the TGI (HCT-15 colon) was > 100000 nM, the TGI (NCI-H23 lung) was > 100 µM and the TGI (ACHN renal) was > 100 µM. The TGI (SK-MEL-28 melanoma) was > 100000 nM, the TGI (HT29 colon) was > 100 µM and the TGI (SF-539 CNS) was > 100 µM. For the same compound, the TGI (NCI-H522 lung) was > 100000 nM, the TGI (HOP-62 NSCLC) was > 100 µM and the TGI (RXF 393 renal) was 61.7 µM. The TGI (LXFL 529 NSCLC) was > 100000 nM, the TGI (786-0 renal) was > 100000 nM and the TGI (DLD-1 colon) was > 100000 nM. The TGI (COLO 205 colon) was > 100 µM, the TGI (SK-OV-3 ovarian) was > 100 µM and the TGI (LOX IMVI melanoma) was > 100 µM. The TGI (MOLT-4 leukemia) was > 100 µM, the TGI (KM12 colon) was > 100 µM and the TGI (EKVX NSCLC) was > 100 µM. The TGI (SF-268 CNS) was > 100 µM, the TGI (RPMI-8226 leukemia) was > 100 µM and the TGI (SW-620 colon) was > 100 µM. The TGI (NCI-H226 lung) was 81.6 µM, the TGI (UACC-62 melanoma) was > 100 µM and the TGI (SN12C renal) was > 100 µM. The TGI (MALME-3M melanoma) was > 100 µM, the TGI (HOP-92 NSCLC) was > 100 µM and the TGI (UACC-257 melanoma) was > 100 µM. For the same compound, the TGI (OVCAR-5 ovarian) was > 100 µM, the TGI (DMS 114 small cell lung) was > 100 µM and the TGI (CAKI-1 renal) was > 100 µM. The TGI (SR leukemia) was > 100 µM, the TGI (A549 NSCLC) was > 100 µM and the TGI (A498 renal) was > 100 µM. The TGI (OVCAR-4 ovarian) was > 100 µM, the TGI (NCI-H460 lung) was > 100 µM and the TGI (K-562 leukemia) was > 100 µM. For the same compound, the TGI (HOP-18 NSCLC) was 88.5 µM, the TGI (M19-MEL melanoma) was > 100 µM and the TGI (IGROV1 ovarian) was > 100 µM. For the same compound, the TGI (SK-MEL-2 melanoma) was > 100 µM, the TGI (HCT-116 colon) was > 100000 nM and the TGI (CCRF-CEM leukemia) was > 100000 nM. For the same compound, the TGI (M14 melanoma) was > 100 µM, the TGI (SK-MEL-5 melanoma) was > 100 µM and the TGI (SNB-78 CNS) was > 100 µM. For the same compound, the TGI (U251 CNS) was > 100 µM, the TGI (SF-295 CNS) was > 100 µM and the TGI (SNB-19 CNS) was > 100 µM. For the same compound, the TGI (OVCAR-8 ovarian) was > 100000 nM.
